Assays:
THP1 cells = test: THP1 host cell cytotoxicity; type: cell-based
[1] = Mouse pharmacokinetic study; type: in vivo; settings: after oral dosing 50 mg kg^−1

Row | compound in the plasma after 24 hours [1] | Compound | background cell cytotoxicity (in words) (THP1 cells)
1 | – | Cc1ccc2nc(-c3ccc(N(C)C)cc3)c(NC3CCCCC3)n2c1 [Compound 8] | no background cell cytotoxicity
2 | no compound observed | COc1ccn2c(Nc3cc(F)cc(F)c3)c(-c3ccccn3)nc2c1 [Compound 23] | –
3 | – | CC(C)(C)Nc1c(-c2ccccn2)nc2c(OCc3ccccc3)cccn12 [Compound 2] | no background cell cytotoxicity

From article PMC8130605 (RSC Medicinal Chemistry, 2021)
